Test results published in paper PMC11509018, “Evaluation of the Role of Tanshinone I in an In Vitro System of Charcot-Marie-Tooth Disease Type 2N” (International Journal of Molecular Sciences, 2024).

Target: T1, AlaRS E337K binding to GST-Nrp1 b1 (Homo sapiens, UniProt P49588, E337K)
T1 construct: made in house; host or cells: E. coli BL21 (DE3), pET-21a for AlaRS
T1 sequence (P49588 1-968 E337K): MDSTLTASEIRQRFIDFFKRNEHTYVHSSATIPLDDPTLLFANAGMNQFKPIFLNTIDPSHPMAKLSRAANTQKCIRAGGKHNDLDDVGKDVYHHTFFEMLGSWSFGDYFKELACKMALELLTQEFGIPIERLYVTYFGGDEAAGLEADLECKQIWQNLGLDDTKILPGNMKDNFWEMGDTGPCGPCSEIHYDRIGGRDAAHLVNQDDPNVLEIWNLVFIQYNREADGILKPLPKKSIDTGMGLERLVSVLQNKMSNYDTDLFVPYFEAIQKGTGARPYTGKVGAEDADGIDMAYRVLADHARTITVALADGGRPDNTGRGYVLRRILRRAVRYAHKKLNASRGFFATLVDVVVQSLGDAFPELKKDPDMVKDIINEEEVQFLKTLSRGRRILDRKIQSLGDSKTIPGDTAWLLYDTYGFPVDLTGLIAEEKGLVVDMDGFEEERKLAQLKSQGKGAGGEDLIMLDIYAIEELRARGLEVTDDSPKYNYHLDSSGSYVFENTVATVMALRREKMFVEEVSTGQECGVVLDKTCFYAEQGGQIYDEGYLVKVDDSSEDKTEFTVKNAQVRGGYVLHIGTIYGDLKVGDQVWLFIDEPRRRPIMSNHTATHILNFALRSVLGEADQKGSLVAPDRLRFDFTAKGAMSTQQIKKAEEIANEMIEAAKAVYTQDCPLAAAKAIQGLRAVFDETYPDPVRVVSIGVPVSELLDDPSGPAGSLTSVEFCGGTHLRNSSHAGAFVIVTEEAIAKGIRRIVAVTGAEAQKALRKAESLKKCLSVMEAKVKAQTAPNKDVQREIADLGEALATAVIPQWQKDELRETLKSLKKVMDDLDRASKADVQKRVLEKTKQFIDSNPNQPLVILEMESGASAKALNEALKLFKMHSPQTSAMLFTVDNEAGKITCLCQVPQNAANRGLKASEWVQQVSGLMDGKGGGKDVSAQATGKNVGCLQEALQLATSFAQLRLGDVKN
Experiment: GST pull down assay
Conditions: 20 µM Tanshinone I, ImageJ, average of three repeats

Cc1coc2c1C(=O)C(=O)c1c-2ccc2c(C)cccc12 [Tanshinone I]
Mean density band (E337K), relative quantification of AlaRS mutant pulled down: 0.90
